# Measured values taken from patent EP4474016A1, “STRATEGIES TO TARGET EXTRACELLULARLY ACCESSIBLE RAS PROTEIN” (Julius-Maximilians-Universität Würzburg, priority 2023, dated 2024).
# Legend:
# [1] = system: human acute monocytic leukemia cell line MV4-11; experiment: in vitro killing assay of anti-Ras bispecific antibody alone or in combination with DMSO (luciferase read-out); assay type: cell-based; settings: alone, read-out: viability drop of MV4-11 cells
# Experimental: (§1) The anti-Ras bispecific antibody constructs SFV02_PCC06 (SEQ ID No 75 + 76) was tested in cell culture against the human Multiple Myeloma cell lines MM.1S and the human acute monocytic leukemia cell line MV4-11. The MM. 1S and MV4-11 cells are luziferase positive and were seeded into 96-well cell culture plates (for each cell line 7500 cells in 50 µL per well in 150 µL medium) in the corresponding medium (Table 1) and incubated at 37°C and 5% CO2 for 24 hours. The next day, fresh human CD3+/CD8+ T-cells were added to each well, for a final tumour cell to T cells ratio of 1 to 5. Two dilution series were prepared of the SFV02_PCC06 antibody: (i) A final concentration of 25 nM, 12.5 nM, 6.25 nM and 3.125 nM (Figure 15), and (ii) a final concentration of 15 nM, 7.5 nM, 3.75 nM, 1.87 nM, 0.93 nM, 0.46 nM, 0.23 nM and 0.11 nM (Figure 16). From the antibody dilution series, 20 µL was added to each respective well.
# (§2) To test if chemical compounds can improve and/or increase the bi-specific anti Ras antibody directed killing of tumours cells, two compounds were tested. […] Afterwards, the bioluminescence of the firefly-luciferase was measured, using a Tecan Spark plate reader (with an absorbance scan from 350 nm to 700 nm with an integration time interval of 1000 ms).
# [2] = system: aberrant expressed Ras on the cell surface; experiment: cell-based ELISA of aberrant Ras protein on the cell surface under normal and stress conditions; set-up: species or system human; settings: versus complete medium; for aberrant Ras expression on the cell surface: Lenalidomide 1.5µM overnight
# Experimental: For the cell-based ELISA, different adherent cell lines (AsPC-1, Panc-1, SK-BR-3 and BT-474) were used. First, the cell culture medium was removed, and the cells were washed one time with PBS. After washing, 2 ml of […] Trypsin-EDTA (Gibco, #25300054) was added to trypsinise the cells for 3 min at 37°C. Then, 13 ml of complete medium (Table 1) was added to stop the trypsinisation process. Cell numbers were count via Trypan Blue staining and 30.000 viable cells in 50 µl were seeded out per well, in a 96-well tissue culture plate at 37°C and 5% CO2. After overnight adhesion of the cells, three different mechanisms to induce cellular stress on the tumour cells were tested: (i) addition of 0,5% DMSO in the cell culture medium, (ii) adding 1,5 µM Lenalidomide in the cell culture medium, (iii) or replacement of the complete medium by cell culture medium without supplemented FBS for serum-starvation. As normal control, for cells not under additional cellular stress, cells were left in complete medium. The stress-induction was performed overnight at 37°C and 5% CO2. The next day, to reduce unspecific binding of detection antibody to the plastic of the cell culture plate, each well was filled up to the top with 50% FBS in PBS, carefully pipette on top of the incubation medium, and incubated for 30 minutes at 37°C. Then, the all medium was discarded from the wells and 50 µl of 1:100-diluted FcR Blocking Reagent (MACS Miltenyi #130-059-901) was added to each well to avoid unspecific binding by blocking of the Fc-Receptors on the tumour cells. […]
# The HRP-reaction was stopped after sufficient colour development by adding 50 µl of stop solution (1 N Sulfuric Acid) to each well. Finally, the absorbance was measured in each well at a wavelength of 450 nm and a reference wavelength of 630 nm with a Tecan SPARK® multimode-mikroplate-reader. The absorbance values from the unspecific HRP-labelled control samples (samples without primary antibody but with corresponding HRP labelled secondary antibody), were used for the zero baseline model and set at 0 (Figure 19 and 20).
# [3] = system: human Multiple Myeloma cell lines MM.1S; experiment: in vitro killing assay of anti-Ras bispecific antibody alone or in combination with Lenalidomide (luciferase read-out); assay type: cell-based; settings: MM1.S, Lenalidomide 1.5 µM alone, compared to the cells without Lenalidomide
# Experimental: as §1, §2
SMILES,viability drop at 70.4 µM [1],"aberrant Ras protein on the cell surface ([2]; the four solid tumour cells (AsPC-1, Panc-1, MS-18, SK-BR-3), DMSO 0.5% (v/v))",aberrant Ras expression on the cell surface ([2]; AsPc-1 cells),aberrant Ras expression on the cell surface ([2]; SK-BR-3 cells),percent drop in cell viability at 1.5 µM [3]
"C[S+](C)[O-] [DMSO, Dimethyl Sulfoxide]",30%,down-regulating,,,
Nc1cccc2c1CN(C1CCC(=O)NC1=O)C2=O (centres unmarked) [Lenalidomide],,,up-regulating,up-regulating,25%
